Data: ChEMBL document CHEMBL3044923, “Synthesis of 9-O-glycosyl-berberine derivatives and bioavailability evaluation” (Med Chem Res, 2012)

How the values were obtained:
Set-up in all cases: dose 100 mg/kg, route oral
Conditions in all cases: in vivo
Rattus norvegicus [1] = test: Cmax in SPF Rattus norvegicus (rat) at 100 mg/kg, po; format: ADME, organism-based
Rattus norvegicus [2] = test: Half life in SPF Rattus norvegicus (rat) at 100 mg/kg, po; format: ADME, organism-based
Rattus norvegicus [3] = test: AUC in SPF Rattus norvegicus (rat) at 100 mg/kg, po; format: ADME, organism-based, Plasma
Plasma = test: Stability in SPF Rattus norvegicus (rat) plasma assessed as berberine formation at 100 mg/kg, po; format: ADME, organism-based
Rattus norvegicus [4] = test: Tmax in SPF Rattus norvegicus (rat) at 100 mg/kg, po; format: ADME, organism-based

Cmax (Rattus norvegicus [1]) [ng/mL]	t1/2 (Rattus norvegicus [2]) [h]	AUC (Rattus norvegicus [3]) [ng·h/mL]	Stability (Plasma)	Tmax (Rattus norvegicus [4]) [h]	Structure (SMILES)
37.5	7.31	180.316	Unstable	3	COc1ccc2cc3[n+](cc2c1OC[C@H](O)[C@H](O)CO)CCc1cc2c(cc1-3)OCO2 [9-O-ERYTHROL-BERBERINE]
6.79	7.88	24.184	–	2	COc1ccc2cc3[n+](cc2c1OC)CCc1cc2c(cc1-3)OCO2 [BERBERINE]

Second part, the molecule before the results:

Structure (SMILES)	Cmax (Rattus norvegicus [1]) [ng/mL]	t1/2 (Rattus norvegicus [2]) [h]	AUC (Rattus norvegicus [3]) [ng·h/mL]	Stability (Plasma)	Tmax (Rattus norvegicus [4]) [h]
CCCCCCCCCCCCOc1c(OC)ccc2cc3[n+](cc12)CCc1cc2c(cc1-3)OCO2 [9-O-DODECYL-BERBERINE]	3.71	7.86	14.592	Stable	3.5
CCCCCCCCOc1c(OC)ccc2cc3[n+](cc12)CCc1cc2c(cc1-3)OCO2 [9-O-OCTYL-BERBERINE]	4.39	7.85	17.329	–	3
COc1ccc2cc3[n+](cc2c1OC1OC[C@@H](O)[C@@H](O)[C@@H]1O)CCc1cc2c(cc1-3)OCO2 (stereo partly drawn) [9-O-ARABINOSYL-BERBERINE]	48.7	7.43	205.146	Unstable	3
COc1ccc2cc3[n+](cc2c1OC1O[C@H](CO)[C@@H](O)[C@H](O)[C@H]1O)CCc1cc2c(cc1-3)OCO2 (stereo partly drawn) [9-O-GLUCOSYL-BERBERINE]	63.4	7.58	268.94	Unstable	3
